Calls of active or inactive are those of the source. The calls are words filed in the database; no cut-off is given here.
Legend:
Bacillus subtilis [1] = assay: Antibacterial activity against Bacillus subtilis 168 measured after 18 hrs by broth microdilution method; format: functional; details: subsp. subtilis str. 168, 18 h
Staphylococcus aureus [2] = assay: Antimicrobial activity against Staphylococcus aureus ATCC 25923 measured after 18 hrs by broth microdilution method; format: functional; details: ATCC 25923, 18 h
Staphylococcus aureus [3] = assay: Antimicrobial activity against penicillin-resistant Staphylococcus aureus ATCC 29213 measured after 18 hrs by broth microdilution method; format: functional; details: ATCC 29213, 18 h
Staphylococcus aureus [4] = assay: Antimicrobial activity against methicillin-resistant Staphylococcus aureus ATCC BAA-41 measured after 18 hrs by broth microdilution method; format: functional; details: ATCC BAA-41, 18 h
Staphylococcus aureus [5] = assay: Antimicrobial activity against methicillin-resistant Staphylococcus aureus ATCC 43300 measured after 18 hrs by broth microdilution method; format: functional; details: ATCC 43300, 18 h
Enterococcus faecium [6] = assay: Antimicrobial activity against vancomycin-resistant Enterococcus faecium ATCC 700221 measured after 18 hrs by broth microdilution method; format: functional; details: ATCC 700221, 18 h
Enterococcus faecium [7] = assay: Antimicrobial activity against drug-susceptible Enterococcus faecium ATCC 49624 measured after 18 hrs by broth microdilution method; format: functional; details: ATCC 49624, 18 h
Enterococcus faecalis = assay: Antimicrobial activity against Enterococcus faecalis ATCC 29212 measured after 18 hrs by broth microdilution method; format: functional; details: ATCC 29212, 18 h
Escherichia coli [8] = assay: Antimicrobial activity against Escherichia coli ATCC 25922 measured after 18 hrs by broth microdilution method; format: functional; details: ATCC 25922, 18 h
Escherichia coli [9] = assay: Antimicrobial activity against NDM1 beta -lactamse expressing Escherichia coli ATCC BAA-2469 measured after 18 hrs by broth microdilution method; format: functional; details: ATCC BAA-2469, 18 h
Acinetobacter baumannii = assay: Antimicrobial activity against multidrug-resistant Acinetobacter baumannii ATCC 19606 measured after 18 hrs by broth microdilution method; format: functional; details: ATCC 19606 = CIP 70.34 = JCM 6841, 18 h
Klebsiella pneumoniae = assay: Antimicrobial activity against NDM1 beta-lactamase expressing Klebsiella pneumoniae ATCC BAA-2470 measured after 18 hrs by broth microdilution method; format: functional; details: ATCC BAA-2470, 18 h
Pseudomonas aeruginosa = assay: Antimicrobial activity against multidrug-resistant Pseudomonas aeruginosa ATCC BAA-2108 measured after 18 hrs by broth microdilution method; format: functional; details: ATCC BAA-2108, 18 h
Enterobacter cloacae = assay: Antimicrobial activity against Ampc beta-lactamase expressing Enterobacter cloacae ATCC BAA-1143 measured after 18 hrs by broth microdilution method; format: functional; details: ATCC BAA-1143, 18 h
Staphylococcus aureus [10] = assay: Bactericidal activity against penicillin-resistant Staphylococcus aureus ATCC 29213 incubated for 18 hrs followed by replating on TSB agar and measured after 24 hrs by broth microdilution method; format: functional
Staphylococcus aureus [11] = assay: Bactericidal activity against methicillin-resistant Staphylococcus aureus ATCC BAA-41 incubated for 18 hrs followed by replating on TSB agar and measured after 24 hrs by broth microdilution method; format: functional
Staphylococcus aureus [12] = assay: Ratio of MBC to MIC for methicillin-resistant Staphylococcus aureus ATCC BAA-41; format: functional
Staphylococcus aureus [13] = assay: Ratio of MBC to MIC for penicillin-resistant Staphylococcus aureus ATCC 29213; format: functional
Staphylococcus aureus [14] = assay: Antimicrobial activity against penicillin-resistant Staphylococcus aureus ATCC 29213 assessed as ratio of MIC after and before 15 serial passages preincubated followed by replating and measured after 24 hrs; format: functional
[15] = target: T1, Cell division protein FtsZ (Bacillus subtilis (strain 168)) (UniProt P17865); assay: Inhibition of cell division function of FtsZ in Bacillus subtilis 168 assessed as increase in cell length at MIC after 4 hrs by FM4-64 dye based confocal microscopic method; details: Bacillus subtilis subsp. subtilis str. 168
T1 sequence (whole entry): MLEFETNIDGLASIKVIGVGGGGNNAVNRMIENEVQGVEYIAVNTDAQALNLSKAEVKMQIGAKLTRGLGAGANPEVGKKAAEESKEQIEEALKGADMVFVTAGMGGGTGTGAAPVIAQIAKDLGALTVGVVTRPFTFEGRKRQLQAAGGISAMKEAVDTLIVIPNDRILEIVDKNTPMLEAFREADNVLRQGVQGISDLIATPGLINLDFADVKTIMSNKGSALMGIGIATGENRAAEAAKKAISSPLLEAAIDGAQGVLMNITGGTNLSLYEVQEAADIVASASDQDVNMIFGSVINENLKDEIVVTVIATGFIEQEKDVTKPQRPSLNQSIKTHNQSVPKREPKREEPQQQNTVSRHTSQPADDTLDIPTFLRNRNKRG

[16] = target: T2, Cell division protein FtsZ (Staphylococcus aureus) (UniProt P0A031); assay: Inhibition of Staphylococcus aureus FtsZ GTPase activity at 64 ug/ml preincubated for 10 mins followed by GTP addition and measured after 30 mins relative to control
T2 sequence (whole entry): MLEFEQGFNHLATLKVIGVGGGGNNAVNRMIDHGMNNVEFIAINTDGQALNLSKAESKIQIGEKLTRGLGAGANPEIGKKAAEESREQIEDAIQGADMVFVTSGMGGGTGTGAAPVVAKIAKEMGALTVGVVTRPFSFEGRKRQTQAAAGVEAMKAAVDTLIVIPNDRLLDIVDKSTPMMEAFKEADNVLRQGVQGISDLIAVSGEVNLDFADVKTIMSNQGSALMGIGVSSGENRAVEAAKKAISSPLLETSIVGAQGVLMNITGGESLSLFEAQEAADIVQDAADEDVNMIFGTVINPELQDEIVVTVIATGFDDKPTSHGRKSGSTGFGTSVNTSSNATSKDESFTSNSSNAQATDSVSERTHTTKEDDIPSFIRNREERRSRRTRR

[17] = target: T2, Cell division protein FtsZ (Staphylococcus aureus); assay: Inhibition of Staphylococcus aureus FtsZ GTPase activity at 32 ug/ml preincubated for 10 mins followed by GTP addition and measured after 30 mins relative to control
[18] = target: T2, Cell division protein FtsZ (Staphylococcus aureus); assay: Inhibition of Staphylococcus aureus FtsZ GTPase activity at 16 ug/ml preincubated for 10 mins followed by GTP addition and measured after 30 mins relative to control
[19] = target: T2, Cell division protein FtsZ (Staphylococcus aureus); assay: Inhibition of Staphylococcus aureus FtsZ GTPase activity at 4 ug/ml preincubated for 10 mins followed by GTP addition and measured after 30 mins relative to control
[20] = target: T2, Cell division protein FtsZ (Staphylococcus aureus); assay: Inhibition of Staphylococcus aureus FtsZ GTPase activity at 1 ug/ml preincubated for 10 mins followed by GTP addition and measured after 30 mins relative to control
[21] = target: T2, Cell division protein FtsZ (Staphylococcus aureus); assay: Inhibition of Staphylococcus aureus FtsZ GTPase activity preincubated for 10 mins followed by GTP addition and measured after 30 mins
Escherichia coli [22] = assay: Antibacterial activity against Escherichia coli BL21 measured after 18 hrs by broth microdilution method; format: functional; details: BL21, 18 h
Escherichia coli [23] = assay: Antibacterial activity against FtsZ over-expressing Escherichia coli BL21 measured after 18 hrs by broth microdilution method; format: functional; details: BL21, 18 h
Staphylococcus aureus [24] = assay: Bactericidal activity against methicillin-resistant Staphylococcus aureus ATCC BAA-41 assessed as reduction in bacterial load at 2 to 4 times MIC incubated for 4 hrs followed by replating on MH agar and measured after 24 hrs by time-kill assay; format: functional, organism-based
Staphylococcus aureus [25] = assay: Bactericidal activity against methicillin-resistant Staphylococcus aureus ATCC BAA-41 assessed as reduction in bacterial load incubated for 1 to 24 hrs followed by replating on MH agar and measured after 24 hrs by time-kill assay; format: functional, organism-based
Staphylococcus aureus [26] = assay: Bactericidal activity against methicillin-resistant Staphylococcus aureus ATCC BAA-41 assessed as bacterial load at 1 to 4 times MIC incubated for 24 hrs followed by replating on MH agar and measured after 24 hrs by time-kill assay; format: functional
[27] = target: T1, Cell division protein FtsZ (Bacillus subtilis (strain 168)); assay: Inhibition of cell division function of FtsZ in Bacillus subtilis 168 assessed as cell length at MIC after 4 hrs by FM4-64 dye based confocal microscopic method; details: Bacillus subtilis subsp. subtilis str. 168
Bacillus subtilis [28] = assay: Disruption of membrane integrity in Bacillus subtilis 168 at MIC after 4 hrs by FM4-64 dye based confocal microscopic method; format: organism-based, subsp. subtilis str. 168
[29] = target: T2, Cell division protein FtsZ (Staphylococcus aureus); assay: Inhibition of recombinant Staphylococcus aureus FtsZ polymerization at 0.4 to 1.2 ug/ml by 90 degree light scattering-based fluorescence spectrometric analysis; details: TDE = time-dependent effect
[30] = target: T2, Cell division protein FtsZ (Staphylococcus aureus); assay: Inhibition of recombinant Staphylococcus aureus FtsZ polymerization by 90 degree light scattering-based fluorescence spectrometric analysis

In the case of C[n+]1c(/C=C/c2c[nH]c3ccccc23)cc(N2CCCCC2)c2ccccc21.[I-], the MIC (Bacillus subtilis [1]) is reported as 4 µg/mL, the MIC (Staphylococcus aureus [2]) is reported as 2 µg/mL and the MIC (Staphylococcus aureus [3]) is reported as 1 µg/mL. For the same compound, the MIC (Staphylococcus aureus [4]) was 2 µg/mL, the MIC (Staphylococcus aureus [5]) was 4 µg/mL and the MIC (Enterococcus faecium [6]) was 4 µg/mL. It also gave an MIC (Enterococcus faecium [7]) of 2 µg/mL, an MIC (Enterococcus faecalis) of 4 µg/mL and an MIC (Escherichia coli [8]) of 8 µg/mL. For the same compound, the MIC (Escherichia coli [9]) was 16 µg/mL, the MIC (Acinetobacter baumannii) was 16 µg/mL and the MIC (Klebsiella pneumoniae) was > 64 µg/mL. For the same compound, the MIC (Pseudomonas aeruginosa) was > 64 µg/mL, the MIC (Enterobacter cloacae) was > 64 µg/mL and the MBC (Staphylococcus aureus [10]) was 2 µg/mL. It also gave an MBC (Staphylococcus aureus [11]) of 4 µg/mL, a Ratio (Staphylococcus aureus [12]) of 2 and a Ratio (Staphylococcus aureus [13]) of 2. The Ratio (Staphylococcus aureus [14]) was 4, the inhibition [15] was “Active” and the inhibition [16] was 41.9%. It also gave an inhibition [17] of 34.3%, an inhibition [18] of 31.8% and an inhibition [19] of 27.8%. For the same compound, the inhibition [20] was 13.6%, the inhibition [21] was “Dose-dependent effect” and the MIC (Escherichia coli [22]) was 8 µg/mL. It also gave an MIC (Escherichia coli [23]) of 16 µg/mL.

With C[n+]1c(/C=C/c2cc3ccccc3[nH]2)cc(N2CCCCC2)c2ccccc21.[I-] the MIC (Bacillus subtilis [1]) was 4 µg/mL, the MIC (Staphylococcus aureus [2]) was 1 µg/mL and the MIC (Staphylococcus aureus [3]) was 1 µg/mL. It also gave an MIC (Staphylococcus aureus [4]) of 2 µg/mL, an MIC (Staphylococcus aureus [5]) of 2 µg/mL and an MIC (Enterococcus faecium [6]) of 4 µg/mL. It also gave an MIC (Enterococcus faecium [7]) of 2 µg/mL, an MIC (Enterococcus faecalis) of 4 µg/mL and an MIC (Escherichia coli [8]) of 16 µg/mL. The MIC (Escherichia coli [9]) was 16 µg/mL, the MIC (Acinetobacter baumannii) was 32 µg/mL and the MIC (Klebsiella pneumoniae) was > 64 µg/mL. The MIC (Pseudomonas aeruginosa) was > 64 µg/mL, the MIC (Enterobacter cloacae) was > 64 µg/mL and the MBC (Staphylococcus aureus [10]) was 2 µg/mL. The MBC (Staphylococcus aureus [11]) was 4 µg/mL, the Ratio (Staphylococcus aureus [12]) was 2 and the Ratio (Staphylococcus aureus [13]) was 2. For the same compound, the Activity (Staphylococcus aureus [24]) was “Active”, the Activity (Staphylococcus aureus [25]) was “Dose-dependent effect” and the Activity (Staphylococcus aureus [26]) was 1 ×10³ CFU/ml. The Ratio (Staphylococcus aureus [14]) was 4, the Activity [27] was 70 to 130 µm and the Activity (Bacillus subtilis [28]) was “Non-Toxic”. The inhibition [16] was 52.1%, the inhibition [17] was 48.3% and the inhibition [18] was 40.8%. For the same compound, the inhibition [19] was 30.2%, the inhibition [20] was 17.9% and the inhibition [21] was “Dose-dependent effect”. For the same compound, the inhibition [29] was “Tde”, the inhibition [30] was “Dose-dependent effect” and the MIC (Escherichia coli [22]) was 8 µg/mL. The MIC (Escherichia coli [23]) was 32 µg/mL.

Source: ChEMBL document CHEMBL4480418, “Antibacterial activity of indolyl-quinolinium derivatives and study their mode of action” (Bioorg Med Chem, 2019)
